System: NK1 and NK2 receptors
Test: Modulation of respiratory effects produced by capsaicin aerosol in conscious guinea pigs
Format: in vivo, guinea pig
Conditions: for dyspnea onset / maximum pressure increase: capsaicin aerosol; for dyspnea onset / maximum pressure increase / SRE number (coughs/gasps): mean and SEM; for SRE number (coughs/gasps): during 19 min capsaicin exposure; for dyspnea incidence: i.v. 20 min prior to capsaicin aerosol (0.001%)
Experimental: In vivo experiments were performed using male Duncan Hartley guinea pigs (250-350g). Changes in conscious breathing patterns were monitored in four animals simultaneously using modified whole body plethysmography consisting of four small plexiglass boxes each connected to a reference box via Validyne DP 45-16 differential pressure transducers. The 4 boxes were equipped with an air supply line (also used for aerosol delivery) and an exhaust air line. Supply and exhaust lines were of the same length and narrow bore and arose from a common supply chamber and vented to a common exhaust chamber. This system was used to ensure that fluctuations in supply air and atmospheric pressure would remain in phase and be eliminated from the net signal by the differential pressure transducers. The analog pressure signals were digitalized via a Data Translation DT2821 A to D board. Data were collected at a rate of 100 samples/second/animal. Each cycle of pressure change was analyzed using the following parameters: rising and falling slope determined between minimum and maximum pressures, the ratio of rising over falling slope, and the magnitude of the change between initial trough pressure and peak cycle pressure. Using these values (and observing the animals) the pressure cycles were characterized into normal breaths, forced exhalations (apparent by abdominal heaving), significant respiratory events (SREs; usually coughs, less often sneezes or gasps which were characterized by transient, extremely large pressure increases which were distinguishable from noise) and movement/noise with a PCAT 286 running a System V UNIX operating system. Dyspnea was defined as a significant, sustained increase in plethysmograph pressure which was associated with an observable shift to labored breathing in the animal.
During the course of a typical experiment in which airway responsiveness to various bronchoconstricting agents was examined, aerosols were delivered for 19 min (0.33 ml/min) using a DeVilbiss Ultraneb 99 ultrasonic nebulizer and animals monitored during this time. Prior to nebulization, 1 min of resting breathing was collected to establish a baseline pressure. […] The vehicle for nebulization of all bronchoconstrictive agents was phosphate buffered saline (pH 7.4) which elicited no respiratory effects itself. Putative tachykinin antagonists were administered either (i.v.) 20 min prior to onset of aerosol exposure or orally 1 hour prior to onset (to guinea pigs after an overnight fast).
Capsaicin aerosol is known to promote release of the tachykinins SP and NKA from sensory nerves in the airways of guinea pigs which may then act upon NK1 and NK2 receptors, respectively to elicit respiratory effects.

## COc1cc(C(=O)N2CCC(CCN3CCC(C(N)=O)(c4ccccc4)CC3)(c3ccc(Cl)c(Cl)c3)C2)cc(OC)c1OC.Cl (single isomer, unassigned; (+)) [Example 20A, (+)-1-[2-[3-(3,4-dichloro-phenyl)-1-(3,4,5-trimethoxy-benzoyl)-pyrrolidin-3-yl]-ethyl]-4-phenyl-piperidine-4-carboxylic acid amide hydrochloride]
1 mg/kg i.v.
  dyspnea onset: 331 ± 22 s
  maximum pressure increase: 1.0 ± 0.1 mmH2 O
  SRE number (coughs/gasps): 9.9 ± 2.7
1 mg/kg
  dyspnea incidence: 77.8%
2.5 mg/kg i.v.
  dyspnea onset: 426 ± 57 s
  maximum pressure increase: 0.6 ± 0.1 mmH2 O
  SRE number (coughs/gasps): 8.3 ± 1.6
2.5 mg/kg
  dyspnea incidence: 100%
5 mg/kg i.v.
  dyspnea onset: 597 ± 186 s
  maximum pressure increase: 0.8 ± 0.06 mmH2 O
  SRE number (coughs/gasps): 4.4 ± 1.9
5 mg/kg
  dyspnea incidence: 44.4%
10 mg/kg i.v.
  dyspnea onset: 592 ± 71 s
  maximum pressure increase: 0.8 ± 0.1 mmH2 O
  SRE number (coughs/gasps): 3.3 ± 1.1
10 mg/kg
  dyspnea incidence: 55.6%
intravenous
  effect on capsaicin-induced respiratory effects (in words): attenuate capsaicin-induced respiratory effects

— US5635510A, “Substituted pyrrolidin-3-yl-alkyl-piperidines” (Merrell Pharmaceuticals Inc., priority 1994, dated 1997)
